Reference: US20250034138A1, “Compounds and Compositions as C-Kit Kinase Inhibitors” (Enanta Pharmaceuticals, Inc., priority 2023, published 2025)
Like-named read-outs stand apart in the source and are kept apart here.

Tests used:
[1] = tested on: M-07e cells which endogenously express human c-KIT; assay: M-07e Cellular Assay (SCF-mediated cell proliferation, CellTiter Glo); type: cell-based; settings: read-out: M-07e EC50
Procedure: 2. M-07e Cellular Assay M-07e cells (Creative Bioarray, CSC-CO249) which endogenously express human c-KIT were used to evaluate the effect of compounds on stem cell factor (SCF)-mediated cell proliferation. M-07e cells were cultured in growth media (RPMI+10% FBS+1% penicillin/streptomycin+10 ng/mL GM-CSF) at 5E5-1.5E6 cells/mL, replenishing media every 3-4 days. 1.5E4 cells were seeded per well in 384 well tissue culture treated plates in 20 μL assay media (RPMI+10% FBS+1% penicillin/streptomycin) without growth factor stimulation and incubated at 37° C. in a CO2 humidity-controlled incubator. Twenty-four hours later, three-fold serially diluted test compounds in media containing SCF (at the previously determined EC90) were added to the plated M-07e cells and incubated for an additional 72 hours. Cell viability was determined by adding 25 μL CellTiter Glo (Promega) to the cells and the luminescence was measured using a Perkin Elmer Envision plate reader. The EC50 was determined using GraphPad Prism. […] EC50 ranges are reported as follows: […]

[2] = target: T1, Recombinant human c-KIT kinase (Homo sapiens, UniProt P10721); assay: c-KIT Kinase Chemiluminescence Assay (ADP-Glo); type: biochemical; settings: recombinant human c-KIT 30-40 nM, ATP 50 μM, polyEY substrate, ADP-Glo luminescence
T1 construct: purchased Promega V4498
Source text: Staurosporine (AM-2282) and Imatinib (STI571) were purchased from Selleck Chemicals LLC (Houston, TX). The c-KIT reference compound THB001 (EP-053504) was synthesized by Enanta Pharmaceuticals, Inc. (Watertown, MA). The c-KIT Kinase Enzyme System (V4498) and ADP-Glo™ Kinase Assay kit (V6930) were purchased from Promega (Madison, WI). DMSO (D2650) was purchased from Sigma-Aldrich (Burlington, MA). ECHO-650 acoustic liquid handling system (67492212) and 384-well LDV ECHO source plates (LP-0200) were purchased from Labcyte, Inc (San Jose, CA). Envision Multimode Plate Reader (2104/464466) and ProxiPlate-384 Plus White 384-shallow well microplates (6008280) were purchased from PerkinElmer (Waltham, MA).
1. c-KIT Kinase Chemiluminescence Assay:
IC50 determination. Test compounds were dispersed into a 384-well low volume while ProxiPlate microplate from a DMSO solution using an ECHO 650 acoustic dispenser to generate a 11-point, 3.162-fold dilution, concentration curve starting at 10 μM in duplicate. Kinase Reaction: The kinase assay was based on the recommended protocol by c-KIT Kinase Enzyme System from Promega. Recombinant human c-KIT kinase in 3 μL of assay buffer (40 mM Tris pH 7.5, 20 mM MgCl2, 0.1 mg/mL BSA and 50 μM DTT) was added to the test or high control wells and 3 μL of assay buffer was added to the low control wells. The microplate was centrifuged at 800 rotations per minute (rpm) for 60 s and incubated at room temperature (RT) for 30 min. Next, 2 μL of buffered ATP and polyEY substrate solution was added to all wells. The microplate was centrifuged at 800 rpm for 60 s and incubated at RT for 2 h. The final assay contained c-KIT (30-40 nM), ATP (50 μM), polyEY substrate (0.2 μg/μL), test compounds (0-10 μM) and DMSO (1.7%) in 5 μL assay buffer. ADP detection with ADP-Glo™ Kinase Assay: After the kinase reaction incubation, 5 μL of ADP-Glo™ reagent was added to all wells. The microplate was centrifuged at 800 rpm for 60 s and incubated at RT for 40 min. Ten microliter (10 μL) of Kinase Detection Reagent (Luciferin-Luciferase system) was then added to all wells. The microplate was centrifuged at 800 rpm for 60 s and incubated at RT for 60 min. Kinase activity was measured as increase in luminescence at RT in an Envision plate reader equipped with 560 nm filters and operating in endpoint mode.
Data Analysis: Endpoint chemiluminescence from high and low control wells were used to calculate normalized c-KIT activity at various concentrations of test compounds. The normalized activities were fitted to inhibitor-versus-normalized response fit in GraphPad Prism 7 to determine half-maximal inhibitory concentration (IC50) and hill coefficient values (H).
c-KIT activity (%)=100/(1+I^H/IC50^H). Where I is the inhibitor concentration and H is the Hill coefficient. IC50 ranges are reported as follows: A<100 nM; B 0.1-1 μM; C>1 μM.

[3] = SCF (EC90)-stimulated M-07e cell proliferation, 72 hours, CellTiter Glo

T1 sequence (P10721 26-976): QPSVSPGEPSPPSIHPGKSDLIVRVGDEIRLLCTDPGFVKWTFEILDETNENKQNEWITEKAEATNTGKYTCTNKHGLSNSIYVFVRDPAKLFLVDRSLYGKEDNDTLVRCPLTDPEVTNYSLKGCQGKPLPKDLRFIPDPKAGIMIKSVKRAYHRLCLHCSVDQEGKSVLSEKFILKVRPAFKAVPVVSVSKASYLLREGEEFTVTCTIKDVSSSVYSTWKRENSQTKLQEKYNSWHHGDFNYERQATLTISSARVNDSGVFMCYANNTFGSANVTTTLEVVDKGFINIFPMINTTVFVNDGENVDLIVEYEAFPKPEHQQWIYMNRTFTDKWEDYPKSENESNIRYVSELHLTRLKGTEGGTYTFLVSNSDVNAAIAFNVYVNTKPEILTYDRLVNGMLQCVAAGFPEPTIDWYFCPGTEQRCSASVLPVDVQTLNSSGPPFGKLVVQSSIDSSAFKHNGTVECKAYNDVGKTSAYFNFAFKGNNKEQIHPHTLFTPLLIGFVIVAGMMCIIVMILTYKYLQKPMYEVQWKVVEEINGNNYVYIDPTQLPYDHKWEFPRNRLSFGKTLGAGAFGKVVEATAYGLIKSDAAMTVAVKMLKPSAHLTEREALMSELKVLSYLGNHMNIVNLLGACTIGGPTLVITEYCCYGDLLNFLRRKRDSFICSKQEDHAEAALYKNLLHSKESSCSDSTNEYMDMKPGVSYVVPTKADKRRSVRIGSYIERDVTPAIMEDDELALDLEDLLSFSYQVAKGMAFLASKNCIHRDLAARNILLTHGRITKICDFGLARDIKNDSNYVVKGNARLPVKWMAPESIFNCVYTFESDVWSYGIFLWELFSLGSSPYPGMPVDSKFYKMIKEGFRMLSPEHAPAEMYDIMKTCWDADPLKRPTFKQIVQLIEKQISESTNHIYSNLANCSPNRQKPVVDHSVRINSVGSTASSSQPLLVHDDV

Row | SMILES | EC50 [1, 3] [µM] | IC50 [2] [µM] | EC50 ([1]; M-07e, 72 h) [µM]
1 | Cc1ccc(-c2nnc(C3CC(F)(F)C3)s2)cc1NC(=O)c1cnc2ccccn12 [Example 1-1] | < 0.1 | < 0.1 | –
2 | Cc1ccc(-c2nnc([C@H]3C[C@@H]3F)s2)cc1NC(=O)c1cnc2ccccn12 [Example 1] | < 0.1 | < 0.1 | –
3 | Cc1ccc(-c2nnn(C3CC3)n2)cc1NC(=O)c1cnc2ccccn12 [Example 2] | < 0.1 | 0.1 to 1 | –
4 | Cc1ccc(-c2nnn(C3CC(F)(F)C3)n2)cc1NC(=O)c1cnc2ccccn12 [Example 3] | < 0.1 | < 0.1 | –
5 | Cc1ccc(-c2nc(C3CC(F)(F)C3)cs2)cc1NC(=O)c1cnc2ccccn12 [Example 4] | 0.1 to 1 | < 0.1 | –
6 | Cc1ccc(-c2nnc(C3CC3)n2C2CC2)cc1NC(=O)c1cnc2ccccn12 [Example 5] | > 1 | > 1 | –
7 | Cc1ccc(-c2nc(C3CC3)nn2C)cc1NC(=O)c1cnc2ccccn12 [Example 6-1] | 0.1 to 1 | > 1 | –
8 | Cc1ccc(-c2nc3ccc(F)cn3n2)cc1NC(=O)c1cnc2ccccn12 [Example 6-2] | < 0.1 | < 0.1 | –
9 | Cc1ccc(-c2nc3ccc(Cl)cn3n2)cc1NC(=O)c1cnc2ccccn12 [Example 6-3] | < 0.1 | < 0.1 | –
10 | Cc1ccc(-c2cn3c(n2)CCCC3)cc1NC(=O)c1cnc2ccccn12 [Example 6-4] | < 0.1 | 0.1 to 1 | –
11 | Cc1ccc(-c2cn3c(n2)CCC3)cc1NC(=O)c1cnc2ccccn12 [Example 6-5] | 0.1 to 1 | 0.1 to 1 | –
12 | Cc1ccc(-c2nc3cc(F)ccn3n2)cc1NC(=O)c1cnc2ccccn12 [Example 6-6] | < 0.1 | < 0.1 | –
13 | Cc1ccc(-c2nc3ccccn3n2)cc1NC(=O)c1cnc2ccccn12 [Example 6-7] | – | > 1 | –
14 | Cc1ccc(-c2nc3n(n2)[C@@H](c2ccccc2)C[C@H]3F)cc1NC(=O)c1cnc2ccccn12 [Example 6-8] | 0.1 to 1 | 0.1 to 1 | –
15 | Cc1ccc(-c2nc3ccc(C(F)(F)F)cn3n2)cc1NC(=O)c1cnc2ccccn12 [Example 6-9] | < 0.1 | < 0.1 | –
16 | Cc1ccc(-c2nc3cccc(C(F)(F)F)n3n2)cc1NC(=O)c1cnc2ccccn12 [Example 6-10] | 0.1 to 1 | 0.1 to 1 | –
17 | Cc1ccc(-c2nnc3n2CCCC3)cc1NC(=O)c1cnc2ccccn12 [Example 6-11] | – | > 1 | –
18 | Cc1ccc(-c2nc3n(n2)CCCC3)cc1NC(=O)c1cnc2ccccn12 [Example 6-12] | 0.1 to 1 | 0.1 to 1 | –
19 | Cc1ccc(-c2nc3n(n2)CCN(C(=O)OC(C)(C)C)C3)cc1NC(=O)c1cnc2ccccn12 [Example 6-13] | 0.1 to 1 | < 0.1 | –
20 | Cc1ccc(-c2nc3cc(C(F)(F)F)ccn3n2)cc1NC(=O)c1cnc2ccccn12 [Example 6-14] | < 0.1 | < 0.1 | –
21 | Cc1ccc(-c2nc3cc(Cl)ccn3n2)cc1NC(=O)c1cnc2ccccn12 [Example 6-15] | 0.1 to 1 | < 0.1 | –
22 | Cc1ccc(-c2nc3n(n2)CCNC3)cc1NC(=O)c1cnc2ccccn12 [Example 6-16] | > 1 | 0.1 to 1 | –
23 | Cc1ccc(-c2nc3n(n2)CCN(C(=O)[C@H]2C[C@@H]2F)C3)cc1NC(=O)c1cnc2ccccn12 [Example 6-18] | 0.1 to 1 | 0.1 to 1 | –
24 | Cc1ccc(-c2nc3n(n2)CCN(C(=O)C2CC(F)(F)C2)C3)cc1NC(=O)c1cnc2ccccn12 [Example 6-19] | – | 0.1 to 1 | –

Row | SMILES | EC50 [1, 3] [µM] | IC50 [2] [µM] | EC50 ([1]; M-07e, 72 h) [µM]
25 | Cc1ccc(-c2nc3n(n2)CCN(C(=O)[C@H]2[C@@H]4CC(F)(F)C[C@@H]42)C3)cc1NC(=O)c1cnc2ccccn12 [Example 6-20] | – | > 1 | –
26 | Cc1ccc(-c2nc3n(n2)C[C@H](C(F)(F)F)CC3)cc1NC(=O)c1cnc2ccccn12 [Example 6-21] | < 0.1 | < 0.1 | –
27 | Cc1ccc(-c2nc3cc(C4CC4)ccn3n2)cc1NC(=O)c1cnc2ccccn12 [Example 6-23] | < 0.1 | < 0.1 | –
28 | Cc1ccc(-c2nc3ccc(C4CC4)cn3n2)cc1NC(=O)c1cnc2ccccn12 [Example 6-24] | < 0.1 | < 0.1 | –
29 | Cc1ccc(-c2nc(C3CC3)n(C)n2)cc1NC(=O)c1cnc2ccccn12 [Example 6] | 0.1 to 1 | 0.1 to 1 | –
30 | Cc1ccc(-c2cn(C3CC(F)(F)C3)nn2)cc1NC(=O)c1cnc2ccccn12 [Example 7] | < 0.1 | < 0.1 | –
31 | Cc1ccc(-n2nnc(C3CC(F)(F)C3)n2)cc1NC(=O)c1cnc2ccccn12 [Example 8] | < 0.1 | < 0.1 | –
32 | Cc1ccc(-n2nnc(-c3ccc(F)cc3)n2)cc1NC(=O)c1cnc2ccccn12 [Example 9-1] | 0.1 to 1 | 0.1 to 1 | –
33 | Cc1ccc(-n2nnc(-c3cccc(F)c3)n2)cc1NC(=O)c1cnc2ccccn12 [Example 9-2] | 0.1 to 1 | 0.1 to 1 | –
34 | Cc1ccc(-c2coc(C3CC(F)(F)C3)n2)cc1NC(=O)c1cnc2ccccn12 [Example 10] | < 0.1 | < 0.1 | –
35 | Cc1ccc(-c2coc([C@H]3C[C@@H]3F)n2)cc1NC(=O)c1cnc2ccccn12 [Example 11-1] | < 0.1 | 0.1 to 1 | –
36 | Cc1ccc(-c2nc3cc(F)ccc3o2)cc1NC(=O)c1cnc2ccccn12 [Example 11-2] | < 0.1 | < 0.1 | –
37 | Cc1ccc(-c2nc3ccccc3o2)cc1NC(=O)c1cnc2ccccn12 [Example 11-3] | < 0.1 | 0.1 to 1 | –
38 | Cc1ccc(-c2nc3ccccc3s2)cc1NC(=O)c1cnc2ccccn12 [Example 11-4] | 0.1 to 1 | < 0.1 | –
39 | Cc1ccc(-c2nc3ccc(F)cc3o2)cc1NC(=O)c1cnc2ccccn12 [Example 11-5] | 0.1 to 1 | 0.1 to 1 | –
40 | Cc1ccc(-c2nc3ccccc3[nH]2)cc1NC(=O)c1cnc2ccccn12 [Example 11-6] | < 0.1 | < 0.1 | –
41 | Cc1ccc(-c2nc3ccccc3n2C)cc1NC(=O)c1cnc2ccccn12 [Example 11-7] | 0.1 to 1 | > 1 | –
42 | Cc1ccc(-c2nc3ccc(F)cc3[nH]2)cc1NC(=O)c1cnc2ccccn12 [Example 11-8] | < 0.1 | < 0.1 | –
43 | Cc1ccc(-c2nc3ccc(C(F)(F)F)cc3[nH]2)cc1NC(=O)c1cnc2ccccn12 [Example 11-9] | < 0.1 | < 0.1 | –
44 | Cc1ccc(-c2cnn(C3CC(F)(F)C3)n2)cc1NC(=O)c1cnc2ccccn12 [Example 11-10] | < 0.1 | < 0.1 | –
45 | Cc1ccc(-c2ncc(C3CC(F)(F)C3)n2COCC[Si](C)(C)C)cc1NC(=O)c1cnc2ccccn12 [Example 11-11] | – | > 1 | –
46 | Cc1ccc(-n2cc(C3CC(F)(F)C3)nn2)cc1NC(=O)c1cnc2ccccn12 [Example 11-12] | < 0.1 | < 0.1 | –
47 | Cc1ccc(-n2ncc3ccccc32)cc1NC(=O)c1cnc2ccccn12 [Example 11-13] | – | > 1 | 0.1 to 1
48 | Cc1ccc(-c2c[nH]c(C3CC(F)(F)C3)n2)cc1NC(=O)c1cnc2ccccn12 [Example 11] | 0.1 to 1 | 0.1 to 1 | –
